Results from patent publication US20030073837A1, “3-HETEROARYLIDENYL-2-INDOLINONE COMPOUNDS FOR MODULATING PROTEIN KINASE ACTIVITY AND FOR USE IN CANCER CHEMOTHERAPY” (priority 1998, published 2003).

Tests used:
[1] = test system: FLK-1 receptor; experiment: Cellular-based assay of receptor phosphorylation following VEGF (FLK-1 ELISA); format: cell-based
[2] = test system: a variety of tumor cell lines; experiment: Direct inhibitory effect on tumor cell lines in vitro; format: cell-based; conditions: concentrations up to 50 μM
[3] = test system: a variety of tumor cell lines subcutaneously implanted; experiment: Subcutaneous tumor implants in immunocompromised mice; format: in vivo
From the text: (§1) The ability of human tumors to grow as xenografts in athymic mice (e.g., Balb/c, nu/nu) provides a useful in vivo model for studying the biological response to therapies for human tumors. Since the first successful xenotransplantation of human tumors into athymic mice, (Rygaard and Povlsen, 1969, Acta Pathol. Microbial. Scand. 77:758-760), many different human tumor cell lines (e.g., mammary, lung, genitourinary, gastrointestinal, head and neck, glioblastoma, bone, and malignant melanomas) have been transplanted and successfully grown in nude mice. The following assays may be used to determine the level of activity, specificity and effect of the different compounds of the present invention. […]
(§2) Cell lines are grown in appropriate medium (for example, MEM, DMEM, Ham's F10, or Ham's F12 plus 5%-10% fetal bovine serum (FBS) and 2 mM glutamine (GLN)). […] All cell lines are routinely subcultured twice a week and are negative for mycoplasma as determined by the Mycotect method (Gibco).
(§3) Cells are harvested at or near confluency with 0.05% Trypsin-EDTA and pelleted at 450×g for 10 min. […] Tumor growth is measured over 3 to 6 weeks using venier calipers. Tumor volumes are calculated as a product of length×width×height unless otherwise indicated. P values are calculated using the Students t-test. […]

[4] = test system: human melanoma cells; experiment: Dose response study, human melanoma cells subcutaneous in athymic mice; format: in vivo; conditions: daily administration, doses as low as 1 mg/kg/day
From the text: as §1, §2, §3

[5] = test system: tumor growth; experiment: Less frequent intraperitoneal dosing studies in athymic mice; format: in vivo; conditions: for tumor growth inhibition: intraperitoneal
From the text: as §1, with “invention. Three general types of assays are useful for evaluating compounds: cellular/catalytic, cellular/biological and in vivo. The object of the cellular/catalytic assays is to determine the effect of a compound on the ability of a TK to phosphorylate tyrosines on a known substrate in a cell. The object of the cellular/biological assays is to determine the effect of a compound on the biological response stimulated by a TK in a cell. The object of the in vivo assays is to determine the effect of a compound in an animal model of a particular disorder such as cancer.” for “invention.”
as §2, §3

[6] = test system: tumor cells implanted under the serosa of the colon; experiment: Tumor cells surgically implanted under the serosa of the colon; format: in vivo, mice
Experimental: 8 week old nude mice (female) (Simonsen Inc.) are used as experimental animals. Implantation of tumor cells can be performed in a laminar flow hood. For anesthesia, Xylazine/Ketamine Cocktail (100 mg/kg ketamine and 5 mg/kg Xylazine) are administered intraperitoneally. A midline incision is done to expose the abdominal cavity (approximately 1.5 cm in length) to inject 10^7 tumor cells in a volume of 100 μl medium. The cells are injected either into the duodenal lobe of the pancreas or under the serosa of the colon. The peritoneum and muscles are closed with a 6-0 silk continuous suture and the skin is closed by using wound clips. Animals are observed daily.
After 2-6 weeks, depending on gross observations of the animals, the mice are sacrificed, and the local tumor metastases to various organs (lung, liver, brain, stomach, spleen, heart, muscle) are excised and analyzed (measurement of tumor size, grade of invasion, immunochemistry, in situ hybridization determination, etc.).

[7] = test system: ATP binding site of the receptor tyrosine kinase; experiment: Washout experiments in vitro
[8] = In vivo intravenous pharmacokinetics, mice
[9] = In vivo intravenous pharmacokinetics, rats
[10] = In vivo intravenous pharmacokinetics, dogs
[11] = Subchronic toxicokinetic study (28 day toxicity study), rats; format: in vivo
[12] = Subchronic toxicokinetic study (28 day toxicity study), dogs; format: in vivo
[13] = Whole body autoradiography and excretion after intravenous injection; format: in vivo; conditions: in 24 hours, 14C-labeled
[14] = test system: β-450 liver enzymes (CYP1A2 and CYP3A4); experiment: In vitro metabolism studies; format: in vitro ADME
[15] = Phase I dose escalation studies, toxicity; format: in vivo; conditions: patients treated with up to 52 weeks of treatment
[16] = Phase 1 study pharmacokinetics in patients with advanced malignancies; conditions: for half-life: plasma, intravenous

For Cc1cc(C)c(/C=C2\C(=O)Nc3ccccc32)[nH]1 [3-[(2,4-dimethylpyrrol-5-yl)methylidenyl]-2-indolinone], the “receptor phosphorylation that follows the interaction of VEGF with its receptor” value [1] was “inhibit the receptor phosphorylation”, the “direct inhibitory effects on tumor cell lines” value [2] was “no direct inhibitory effects” and the “suppression of tumor growth with delayed administration” value ([3]; administration delayed until tumors approximately 50 mm^3, versus start on Day 1) was “equivalent efficacy”. The “inhibition of tumor growth” value ([3]; daily intraperitoneal dosing 12.5-25 mg/kg/day for 28 days) was 30-80%, the “inhibition of human melanoma cells” value [4] was “dose-dependent inhibition” and the “tumor growth inhibition and toxicity with interval dosing” value ([5]; dosing at 3 to 4 day intervals) was “sufficient to inhibit tumor growth without toxicity”. For the same compound, the tumor growth inhibition ([5]; daily dosing) was 68%, the tumor growth inhibition ([5]; twice weekly dosing for four weeks) was 77% and the “growth of tumor cells implanted under the serosa of the colon” value ([6]; daily administration 25 mg/kg/day) was “significantly inhibit the growth”. The tumor vascularization ([6]; pale appearance of tumors in treated animals) was “decreased vascularization”, the target half-life [7] was 96 h and the “elimination of the parent compound from the circulation” value (shortened to “elimination of the parent compound”) [8] was “rapid elimination”. For the same compound, the “elimination of the parent compound” value ([9]; intravenous) was “rapid elimination”, the “elimination half-life versus dose” value ([9]; intravenous 29.5-97.9 mg/m^2) was “linearly increases as the dose increased” and the “increase of AUC” value ([9]; intravenous 29.5-97.9 mg/m^2, with a 3-fold increase in dose) was 10 fold. The “elimination of the parent compound” value [10] was “rapid elimination”, the “accumulation in plasma upon repeated administration” value [11] was “did not accumulate in plasma” and the “accumulation in plasma upon repeated administration” value [12] was “did not accumulate in plasma”. The excreted in feces [13] was 72%, the excreted in urine [13] was 16% and the total dose recovered [13] was 92 % of the total administered dose. For the same compound, the metabolizing enzymes [14] was “metabolized via β-450 liver enzymes, most probably via CYP1A2 and CYP3A4”, the cumulative toxicity [15] was “no cumulative toxicity was observed” and the “increase of the rate of clearance” value ([16]; after eight infusions, all patients) was 50-300%. The total distributive volume ([16]; calculated by a one-compartment model) was 53.6 ± 11.3 L, the clearance versus dose ([16]; doses 4.4-190 mg/m^2) was “independent of dose” and the “AUC and CMAX versus dose” value ([16]; doses tested in humans to date) was “increase linearly with dose”. For the same compound, the “individual clearance calculated based on BSA” value ([16]; human, in vivo) was 41.8±22.1 L/hour/m2, the half-life ([16]; human, alpha half-life, mean, doses 4.4-190 mg/m^2) was 5.8 ± 1.9 min and the half-life ([16]; human, beta half-life or elimination phase, mean, doses 4.4-190 mg/m^2) was 43.4 ± 21.9 min. It also gave a half-life ([16]; human, beta half-life or elimination phase, range, doses 4.4-190 mg/m^2) of 10 to 111 min and a half-life ([16]; human, half-life in humans, doses 4.4-190 mg/m^2, preliminary) of roughly 60 min.
